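Each compound was tested at five concentrations against cells in 96-well plates for 48 hours. Abbreviation: GI50, concentration required for 50% inhibition of growth.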 The source made the active and inactive calls. No stated cut-off is given here; in the data, active = GI50 up to about 1.1 µM and inactive = higher.
Assays:
Assay in all cases: NCI-60 cell line screen, 48 h
[1] = test system: NCI/ADR-RES
[2] = test system: K562
[3] = test system: A549
[4] = test system: SK-MEL-5
[5] = test system: SNB-19
[6] = test system: HL-60
[7] = test system: SN12C
[8] = test system: EKVX
[9] = test system: UACC-62
[10] = test system: T47D
[11] = test system: RXF 393
[12] = test system: MDA-MB-435
[13] = test system: HT-29
[14] = test system: SK-MEL-2
[15] = test system: SF-539
[16] = test system: PC-3
[17] = test system: Hs-578T
[18] = test system: HOP-92
[19] = test system: CAKI-1
[20] = test system: Malme-3M

| Structure (SMILES) | GI50 [1] | GI50 [2] | GI50 [3] | GI50 [4] | GI50 [5] | GI50 [6] | GI50 [7] | GI50 [8] | GI50 [9] | GI50 [10] | GI50 [11] | GI50 [12] | GI50 [13] | GI50 [14] | GI50 [15] | GI50 [16] | GI50 [17] | GI50 [18] | GI50 [19] | GI50 [20] |
| --- | --- | --- | --- | --- | --- | --- | --- | --- | --- | --- | --- | --- | --- | --- | --- | --- | --- | --- | --- | --- |
| CCCCCCCC/C=C\CCCCCCCCNc1ccn(C2OC(COP(=O)(O)OC3CC(n4cc(F)c(=O)[nH]c4=O)OC3CO)C(O)C2O)c(=O)n1 (stereo not given) | 3.36 µM (inactive) | 2.52 µM (inactive) | < 0.0194 µM (active) | 10.4 µM (inactive) | 0.376 µM (active) | 1.25 µM (inactive) | > 100 µM (inactive) | > 100 µM (inactive) | 0.223 µM (active) | 36.3 µM (inactive) | 9.62 µM (inactive) | 40.8 µM (inactive) | 4.19 µM (inactive) | > 100 µM (inactive) | < 0.0484 µM (active) | 28.7 µM (inactive) | > 100 µM (inactive) | 7.93 µM (inactive) | 2.09 µM (inactive) | 13.2 µM (inactive) |
| COC1(c2cccs2)c2ccccc2C(OC)(c2cccs2)c2ccccc21 (stereo not given) | 92.7 µM (inactive) | 36 µM (inactive) | 94.8 µM (inactive) | > 100 µM (inactive) | 42.8 µM (inactive) | > 100 µM (inactive) | > 100 µM (inactive) | 36.9 µM (inactive) | 47.3 µM (inactive) | 85.7 µM (inactive) | 52.4 µM (inactive) | > 100 µM (inactive) | 50.8 µM (inactive) | 50.5 µM (inactive) | 36.5 µM (inactive) | 42.9 µM (inactive) | 0.518 µM (active) | 54.2 µM (inactive) | > 100 µM (inactive) | > 100 µM (inactive) |
| COc1ccc2c(c1)CN1C(=N2)CSC1c1ccccc1Cl (stereo not given) | 10.1 µM (inactive) | 5.33 µM (inactive) | 25.7 µM (inactive) | 14.4 µM (inactive) | 28.6 µM (inactive) | 6.55 µM (inactive) | 19.1 µM (inactive) | 16.6 µM (inactive) | 17.6 µM (inactive) | 27.7 µM (inactive) | 14.4 µM (inactive) | 18.8 µM (inactive) | 17.4 µM (inactive) | 17.7 µM (inactive) | 14.5 µM (inactive) | 16.3 µM (inactive) | 27.9 µM (inactive) | 11.3 µM (inactive) | 29.1 µM (inactive) | 19.1 µM (inactive) |
| COc1ccc(/N=N/c2c(-c3c(OC)cc4occc4c3OC)[nH]c(=O)c(C#N)c2C)cc1 | > 100 µM (inactive) | > 100 µM (inactive) | > 100 µM (inactive) | > 100 µM (inactive) | > 100 µM (inactive) | > 100 µM (inactive) | > 100 µM (inactive) | > 100 µM (inactive) | > 100 µM (inactive) | > 100 µM (inactive) | > 100 µM (inactive) | > 100 µM (inactive) | > 100 µM (inactive) | > 100 µM (inactive) | > 100 µM (inactive) | > 100 µM (inactive) | > 100 µM (inactive) | > 100 µM (inactive) | > 100 µM (inactive) | 55 µM (inactive) |
| CC1(C)CC(C)(C)C1=NNC(N)=O | > 100 µM (inactive) | > 100 µM (inactive) | > 100 µM (inactive) | > 100 µM (inactive) | > 100 µM (inactive) | > 100 µM (inactive) | > 100 µM (inactive) | > 100 µM (inactive) | > 100 µM (inactive) | > 100 µM (inactive) | > 100 µM (inactive) | > 100 µM (inactive) | > 100 µM (inactive) | > 100 µM (inactive) | > 100 µM (inactive) | > 100 µM (inactive) | > 100 µM (inactive) | > 100 µM (inactive) | > 100 µM (inactive) | > 100 µM (inactive) |

Source: ChEMBL document CHEMBL1201862, “PubChem BioAssay data set” (2004)
